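Each compound was tested at five concentrations against cells in 96-well plates for 48 hours. TGI: total growth inhibition.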
Experiments:
Test in all cases: growth of human tumour cells (NCI), 48 h
CCRF-CEM leukemia = test system: CCRF-CEM leukemia
DU-145 prostate = test system: DU-145 prostate
HCT-116 colon = test system: HCT-116 colon
HOP-62 NSCLC = test system: HOP-62 NSCLC
HOP-92 NSCLC = test system: HOP-92 NSCLC
M14 melanoma = test system: M14 melanoma
MDA-MB-231 breast = test system: MDA-MB-231 breast
MDA-MB-435 = test system: MDA-MB-435
NCI-H226 lung = test system: NCI-H226 lung
NCI-H23 lung = test system: NCI-H23 lung
OVCAR-4 ovarian = test system: OVCAR-4 ovarian
OVCAR-5 ovarian = test system: OVCAR-5 ovarian
OVCAR-8 ovarian = test system: OVCAR-8 ovarian
PC-3 prostate = test system: PC-3 prostate
RPMI-8226 leukemia = test system: RPMI-8226 leukemia
SK-MEL-2 melanoma = test system: SK-MEL-2 melanoma
SN12C renal = test system: SN12C renal
T-47D breast = test system: T-47D breast
UACC-62 melanoma = test system: UACC-62 melanoma
MALME-3M melanoma = test system: MALME-3M melanoma

SMILES	TGI (CCRF-CEM leukemia) [µM]	TGI (DU-145 prostate) [µM]	TGI (HCT-116 colon) [µM]	TGI (HOP-62 NSCLC) [µM]	TGI (HOP-92 NSCLC) [µM]	TGI (M14 melanoma) [µM]	TGI (MDA-MB-231 breast) [µM]	TGI (MDA-MB-435) [µM]	TGI (NCI-H226 lung) [µM]	TGI (NCI-H23 lung) [µM]	TGI (OVCAR-4 ovarian) [µM]	TGI (OVCAR-5 ovarian) [µM]	TGI (OVCAR-8 ovarian) [µM]	TGI (PC-3 prostate) [µM]	TGI (RPMI-8226 leukemia) [µM]	TGI (SK-MEL-2 melanoma) [µM]	TGI (SN12C renal) [µM]	TGI (T-47D breast) [µM]	TGI (UACC-62 melanoma) [µM]	TGI (MALME-3M melanoma) [µM]
N#CC(O)CCOCc1ccccc1 (stereo not given)	> 100	> 100	> 100	> 100	> 100	> 100	> 100	> 100	> 100	> 100	> 100	> 100	> 100	> 100	> 100	> 100	> 100	> 100	> 100	
C/C(=N\O)c1ccc(OCc2cc(C(F)(F)F)cc(C(F)(F)F)c2)cc1	89.3	> 100	> 100	> 100	> 100	> 100	> 100	> 100	> 100	> 100	> 100	> 100	> 100	> 100		> 100	> 100	> 100		> 100
O=c1c2ccccc2n2c(-c3ccccc3O)nnc2n1-c1ccccc1	> 100	> 100	> 100	> 100	> 100	> 100	> 100	> 100	> 100	> 100	> 100	> 100	> 100	> 100		> 100	> 100	> 100	> 100	> 100
CCOC(=O)C1CCCc2sc(N)c(C#N)c21 (stereo not given)			> 100	> 100	> 100	> 100	> 100		> 100	> 100		> 100	> 100	> 100	> 100	> 100	> 100	> 100	> 100	> 100
Cn1c(=O)c2c(nc3n2CCCC(=O)N3CCCCl)n(C)c1=O	> 100	> 100	> 100	> 100	> 100	> 100	> 100	> 100	> 100	> 100	> 100	> 100	> 100	> 100	> 100	> 100	> 100	> 100	> 100	
Oc1ccc(Br)cc1C=Nc1c(NC2CCCCC2)oc2ccc(Br)cc12	20.2	> 100	28.7	> 100			> 100	> 100	> 100	56	> 100	> 100	> 100		> 100		> 100	> 100	> 100	> 100
Cc1ccc(S(=O)(=O)C2=Cc3ccccc3C2(O)c2ccccc2)cc1 (stereo not given)	38.1	> 100	> 100	> 10		31	33.3	69.9	64.5	> 100		> 100	81.2	92.6	44.7	31.4	34.3	> 100		
NCCCN(CCCCN(CCCN)Cc1ccccc1)Cc1ccccc1	> 100	> 100	> 100			> 100	> 100	> 100	> 100	> 100	> 100	37.8	> 100		> 100		42.5	> 100	> 100	> 100
Cc1nc(C(N)=S)sc1C(=O)CC(=O)C(=O)Nc1ccc(Br)cc1	> 100		> 100	> 100	> 100	> 100	> 100	> 100	> 100	> 100	> 100	> 100	> 100	> 100	> 100	> 100	> 100	> 100	> 100	> 100
CC(C)C1=Cc2ccc3c(c2C(=O)C1=O)CCCC3		32	5.39	42.1	2.27	11.1	34.1	21.4	36.1	20.3	3.16	28.6	13.4	26.8	6.6	18.8	13.1	0.567	15.4	5.78
COc1cccc([C@@H]2C/C(=N\NC(=O)C(=O)N[C@@H](C)c3ccccc3)c3ccccc3N2)c1	> 100	> 100	> 100	> 100	> 100	> 100	> 100	48.8	> 100		> 100	> 100		> 100	> 100	> 100	> 100	> 100	38.4	
COc1ccc2c(=O)c3ccoc3[nH]c2c1	> 100	> 100	> 100	> 100	> 100	> 100	> 100	> 100	> 100	> 100	> 100		> 100	> 100	> 100	> 100		> 100	> 100	
COc1cccc(/C=C2\CCC(CN(C)C)C2=O)c1 (stereo not given)	11.1	9.29	16	21	33.9	9.62	14	7.02	33.6	27.3	22.2	29.6	9.55	27.2		26.2	22.8	16.6	20.9	14

Reference: PubChem BioAssay (NCI)
